Patent publication US9376433B2, “(AZA-)isoquinolinone derivatives” (MERCK PATENT GMBH, priority 2012, dated 2016)

Target: T1, TNKS2 (Homo sapiens, UniProt Q9H2K2)
T1 construct: GST-tagged Tnks-2 (873-1166 aa, prepared in-house); made in house
Test: TNKS2 activity ELISA (autoparsylation assay)
Assay type: biochemical
Settings: GST-tagged Tnks-2 (873-1166 aa), luminescence
Protocol: Description of the TNKS1 and TNKS2 ELISA Assay
Biochemical activity testing of TNKS 1 and 2: activity ELISA (Autoparsylation assay)
For analysis of autoparsylation activity of TNKS 1 and 2 an activity ELISA iss performed: In the first step GST tagged TNKS is captured on a Glutathione coated plate. Then the activity assay with biotinylated NAD is performed in the absence/presence of the compounds. During the enzymatic reaction GST tagged TNKS transfers biotinylated ADP-ribose to itself from biotinylated NAD as co-substrate. For the detection streptavidin-HRP conjugate is added that binds to the biotinylated TNKS and is thereby captured to the plates. The amount of biotinylated resp. autoparsylated TNKS is detected with a luminescence substrate for HRP. The level of the luminescence signal correlats directly with the amount of autoparsylated TNKS and therefore with activity of TNKS.
The acitivity ELISA is performed in 384 well Glutathione coated microtiter plates (Express capture Glutathione coated plate, Biocat, Heidelberg, Germany). The plates are pre-equilibrated with PBS. Then the plates are incubated with 50 μl 20 ng/well GST-tagged Tnks-1 (1023-1327 aa, prepared in-house), respectively GST-tagged Tnks-2 (873-1166 aa, prepared in-house) in assay buffer (50 mM HEPES, 4 mM Mg-chloride, 0.05% Pluronic F-68, 2 mM DTT, pH 7.7) overnight at 4° C. The plates are washed 3 times with PBS-Tween-20. The wells are blocked by incubation at room temperature for 20 minutes with 50 μl blocking buffer (PBS, 0.05% Tween-20, 0.5% BSA). Afterwards the plates are washed 3 times with PBS-Tween-20. The enzymatic reaction is performed in 50 μl reaction solution (50 mM HEPES, 4 mM Mg-chloride, 0.05% Pluronic F-68, 1.4 mM DTT, 0.5% DMSO, pH 7.7) with10 μM bio-NAD (Biolog, Life science Inst., Bremen, Germany) as co-substrate in the absence or presence of the test compound (10 dilution concentrations) for 1 hour at 30° C. The reaction is stopped by 3 times washing with PBS-Tween-20. For the detection 50 μl of 20 ng/μl Streptavidin, HRP conjugate (MoBiTec, Göttingen, Germany) in PBS/0.05% Tween-20/0.01% BSA are added and the plates are incubated for 30 minutes at room temperature. After three times washing with PBS-Tween-20 50 μl of SuperSignal ELISA Femto Maximum sensitivity substrate solution (ThermoFisherScientific (Pierce), Bonn, Germany) are added. Following a 1 minute incubation at room temperature luminescence signals are measured with an Envision multimode reader (Perkin Elmer LAS Germany GmbH) at 700 nm. The full value used is the inhibitor-free reaction. The pharmacological zero value used is XAV-939 (Tocris) in a final concentration of 5 μM. The inhibitory values (IC50) are determined using either the program Symyx Assay Explorer® or Condosseo® from GeneData.

T1 sequence (Q9H2K2 873-1166): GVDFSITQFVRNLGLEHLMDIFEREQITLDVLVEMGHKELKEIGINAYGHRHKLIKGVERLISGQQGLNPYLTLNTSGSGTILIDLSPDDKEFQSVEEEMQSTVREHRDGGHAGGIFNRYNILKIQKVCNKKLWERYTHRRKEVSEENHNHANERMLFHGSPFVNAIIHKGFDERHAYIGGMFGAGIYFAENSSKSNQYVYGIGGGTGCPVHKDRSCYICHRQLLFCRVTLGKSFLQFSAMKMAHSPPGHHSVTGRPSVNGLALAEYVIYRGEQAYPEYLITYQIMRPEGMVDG

## Cc1ccc(-c2cc3cc(F)ccc3c(=O)[nH]2)cc1 [Compound A10, 6-fluoro-3-p-tolyl-2H-isoquinolin-1-one]
  IC50: < 300 nM

## CC(C)(O)c1ccc(-c2cc3ccccc3c(=O)[nH]2)cc1 [Compound A3, 3-[4-(1-hydroxy-1-methyl-ethyl)-phenyl]-2H-isoquinolin-1-one]
  IC50: < 300 nM

## COC(C)(C)c1ccc(-c2cc3ccccc3c(=O)[nH]2)cc1 [Compound A15, 3-[4-(1-methoxy-1-methyl-ethyl)-phenyl]-2H-isoquinolin-1-one]
  IC50: < 300 nM

## CC(C)(O)c1ccc(-c2cc3cnccc3c(=O)[nH]2)cc1 [Compound A23, 3-[4-(1-hydroxy-1-methyl-ethyl)phenyl]-2H-2,6-naphthyridin-1-one]
  IC50: < 300 nM

## Cn1cc(-c2ccc(-c3cc4ccncc4c(=O)[nH]3)cc2)cn1 [Compound A14, 3-[4-(1-Methyl-1H-pyrazol-4-yl)-phenyl]-2H-[2,7]naphthyridin-1-one]
  IC50: < 300 nM

## Cc1ccc(-c2cc3c(C)cccc3c(=O)[nH]2)cc1 [Compound A29, 5-methyl-3-(p-tolyl)-2H-isoquinolin-1-one]
  IC50: < 300 nM

## CC(C)(O)c1ccc(-c2cc3c(F)cc(F)cc3c(=O)[nH]2)cc1 [Compound A33, 5,7-difluoro-3-[4-(1-hydroxy-1-methyl-ethyl)-phenyl]-2H-isoquinolin-1-one]
  IC50: < 300 nM

## C=C(C)c1ccc(-c2cc3ccc(F)cc3c(=O)[nH]2)cc1 [Compound A17, 7-fluoro-3-(4-isopropenyl-phenyl)-2H-isoquinolin-1-one]
  IC50: < 300 nM

## Cc1ccc(-c2cc3c(F)cccc3c(=O)[nH]2)cc1 [Compound A12, 5-fluoro-3-p-tolyl-2H-isoquinolin-1-one]
  IC50: < 300 nM

## CC(C)(N)c1ccc(-c2cc3ccc(F)cc3c(=O)[nH]2)cc1 [Compound A20, 3-[4-(1-amino-1-methyl-ethyl)phenyl]-7-fluoro-2H-isoquinolin-1-one]
  IC50: < 300 nM

## CC(C)(O)c1ccc(-c2cc3cccc(F)c3c(=O)[nH]2)cc1 [Compound A27, 8-fluoro-3-[4-(1-hydroxy-1-methyl-ethyl)phenyl]-2H-isoquinolin-1-one]
  IC50: < 300 nM

## CC(C)(O)c1ccc(-c2cc3ccncc3c(=O)[nH]2)cc1 [Compound A24, 3-[4-(1-hydroxy-1-methyl-ethyl)phenyl]-2H-2,7-naphthyridin-1-one]
  IC50: < 300 nM

## CC(C)(O)c1ccc(-c2cc3c(F)cccc3c(=O)[nH]2)cc1 [Compound A28, 5-fluoro-3-[4-(1-hydroxy-1-methyl-ethyl)phenyl]-2H-isoquinolin-1-one]
  IC50: < 300 nM

## CC(C)(O)c1ccc(-c2cc3ccc(F)cc3c(=O)[nH]2)cc1 [Compound A6, 7-fluoro-3-[4-(1-hydroxy-1-methyl-ethyl)-phenyl]-2H-isoquinolin-1-one]
  IC50: < 300 nM

## Cn1cc(-c2ccc(-c3cc4ccc(F)cc4c(=O)[nH]3)cc2)cn1 [Compound A18, 7-fluoro-3-[4-(1-methyl-1H-pyrazol-4-yl)-phenyl]-2H-isoquinolin-1-one]
  IC50: < 300 nM

## Cc1ccc(-c2cc3cccc(F)c3c(=O)[nH]2)cc1 [Compound A11, 8-fluoro-3-p-tolyl-2H-isoquinolin-1-one]
  IC50: < 300 nM

## Cc1ccc(-c2cc3ccc(F)cc3c(=O)[nH]2)cc1 [Compound A9, 7-fluoro-3-p-tolyl-2H-isoquinolin-1-one]
  IC50: < 300 nM

## CC(C)(OCCO)c1ccc(-c2cc3ccc(F)cc3c(=O)[nH]2)cc1 [Compound A16, 7-fluoro-3-{4-[1-(2-hydroxy-ethoxy)-1-methyl-ethyl]-phenyl}-2H-isoquinolin-1-one]
  IC50: < 300 nM

## CC(C)(O)c1ccc(-c2cc3cc(F)ccc3c(=O)[nH]2)cc1 [Compound A5, 6-fluoro-3-[4-(1-hydroxy-1-methyl-ethyl)-phenyl]-2H-isoquinolin-1-one]
  IC50: < 300 nM
